According to the supplement of paper PMC10307832:

compound: CC(C)(C)c1nc(-c2cccc(NS(=O)(=O)c3c(F)cccc3F)c2F)c(-c2ccnc(N)n2)s1 [Dabrafenib] + Cc1nc(Nc2ncc(C(=O)Nc3c(C)cccc3Cl)s2)cc(N2CCN(CCO)CC2)n1 [Dasatinib] (partner 0.075 µM); assay: relative viability (nuclei count vs DMSO), 5 days (fraction); higher = more cells survive; conditions: first compound 0.003 µM
Method in brief: (§1)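 Cells from lung cancer lines were seeded into 1536-well plates and, one day later, dosed by pin tool. Treatments were either a single drug or a fixed dose of an anchor drug with five library-drug doses (not always all listed) in √10 steps. After 5 days, nuclei were stained in a one-step fixation (final 0.05% Triton X-100, 1% formaldehyde, 1 ug/ml Hoechst) and counted on 4× images, and relative viability is the treated-to-vehicle nuclei ratio, as the median of duplicate plates.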

Cell Line	relative viability
LK-2	0.208
LCLC-97TM1	0.574
NCI-H661	0.591
NCI-H1993	0.627
PC-3 [JPC-3]	0.882
NCI-H2009	0.228
NCI-H520	0.223
LXF-289	0.175
NCI-H358	0.185
201T	0.606

same assay, conditions: first compound 0.009487 µM

Cell Line	relative viability
NCI-H1355	0.692
HCC-15	0.665
LU99A	0.569
EKVX	0.585
COR-L23	0.441
NCI-H1437	0.372
RERF-LC-KJ	0.919
NCI-H1734	0.478
BEN	0.334
NCI-H460	0.529
H3255	0.425
SK-LU-1	0.185
NCI-H1793	0.503
NCI-H23	0.814
SW 1573	0.557
NCI-H838	0.287
NCI-H2342	0.309
EPLC-272H	0.443

Cell Line	relative viability
NCI-H3122	0.767
NCI-H1915	0.318
NCI-H727	0.479
NCI-H1975	0.345
LK-2	0.274
NCI-H2087	0.894
LCLC-97TM1	0.847
NCI-H661	0.821
NCI-H2405	0.221
NCI-H1993	0.665
PC-3 [JPC-3]	1.06
NCI-H2009	0.308
NCI-H2347	0.309
NCI-H520	0.24
LXF-289	0.2
NCI-H358	0.197
LC-2-ad	0.802
201T	0.541

same assay, conditions: first compound 0.03 µM

Cell Line	relative viability
NCI-H1355	0.749
HCC-15	0.775
LU99A	0.423
EKVX	0.522
COR-L23	0.555
NCI-H1437	0.256
RERF-LC-KJ	0.92
NCI-H1734	0.454
NCI-H460	0.615
H3255	0.341
SK-LU-1	0.193
NCI-H23	0.873
SW 1573	0.457
NCI-H2342	0.344
EPLC-272H	0.399
NCI-H3122	0.908

Cell Line	relative viability
NCI-H1915	0.386
NCI-H727	0.434
NCI-H1975	0.363
NCI-H2087	0.798
LCLC-97TM1	0.843
NCI-H661	1.04
NCI-H1993	0.607
PC-3 [JPC-3]	0.925
NCI-H2009	0.268
NCI-H2347	0.308
NCI-H520	0.199
LXF-289	0.211
NCI-H358	0.233
LC-2-ad	0.518
201T	0.57

same assay, conditions: first compound 0.09487 µM

Cell Line	relative viability
NCI-H1355	0.651
HCC-15	0.651
LU99A	0.464
EKVX	0.533
COR-L23	0.455
NCI-H1437	0.39
RERF-LC-KJ	0.799
NCI-H1734	0.313
BEN	0.356
NCI-H460	0.509
H3255	0.421
SK-LU-1	0.173
NCI-H23	0.625
SW 1573	0.279
NCI-H838	0.364
NCI-H2342	0.323
EPLC-272H	0.344

Cell Line	relative viability
NCI-H3122	0.793
NCI-H1915	0.296
NCI-H1975	0.344
LK-2	0.285
NCI-H2087	0.519
LCLC-97TM1	0.36
NCI-H661	0.921
NCI-H2405	0.181
NCI-H1993	0.845
PC-3 [JPC-3]	0.881
NCI-H2009	0.209
NCI-H2347	0.448
NCI-H520	0.179
LXF-289	0.195
NCI-H358	0.487
LC-2-ad	0.512
201T	0.497

same assay, conditions: first compound 0.3 µM

Cell Line	relative viability
NCI-H1355	0.703
HCC-15	0.754
LU99A	0.41
EKVX	0.628
COR-L23	0.425
NCI-H1437	0.482
RERF-LC-KJ	0.989
NCI-H1734	0.387
BEN	0.327
NCI-H460	0.571
H3255	0.377
SK-LU-1	0.188
NCI-H1793	0.399
NCI-H23	0.666
SW 1573	0.379
NCI-H838	0.279
NCI-H2342	0.334
EPLC-272H	0.33

Cell Line	relative viability
NCI-H3122	0.75
NCI-H1915	0.345
NCI-H727	0.568
NCI-H1975	0.392
LK-2	0.276
NCI-H2087	0.657
LCLC-97TM1	0.534
NCI-H661	1.06
NCI-H2405	0.172
NCI-H1993	0.856
PC-3 [JPC-3]	1.03
NCI-H2009	0.224
NCI-H2347	0.38
NCI-H520	0.177
LXF-289	0.192
NCI-H358	0.392
LC-2-ad	0.677
201T	0.54

compound: CC(C)(C)c1nc(-c2cccc(NS(=O)(=O)c3c(F)cccc3F)c2F)c(-c2ccnc(N)n2)s1 [Dabrafenib] + CCNC(=O)c1noc(-c2cc(C(C)C)c(O)cc2O)c1-c1ccc(CN2CCOCC2)cc1 [Luminespib] (partner 0.01 µM); assay: as above; conditions: first compound 0.003 µM
Method in brief: as §1

Cell Line	relative viability
HCC-15	0.379
LU99A	0.203
EKVX	0.996
COR-L23	0.648
NCI-H1437	1.15
RERF-LC-KJ	1.31
NCI-H460	0.0327
H3255	0.699
SW 1573	0.179
NCI-H838	0.35
